{"source": "ChEMBL document CHEMBL5126521", "about": "“Analgesic Opioid Ligand Discovery Based on Nonmorphinan Scaffolds Derived from Natural Sources” (J Med Chem, 2022)", "key": {"[1]": {"target": "T1, Delta-type opioid receptor (Homo sapiens, UniProt P41143)", "T1 sequence (P41143 whole entry)": "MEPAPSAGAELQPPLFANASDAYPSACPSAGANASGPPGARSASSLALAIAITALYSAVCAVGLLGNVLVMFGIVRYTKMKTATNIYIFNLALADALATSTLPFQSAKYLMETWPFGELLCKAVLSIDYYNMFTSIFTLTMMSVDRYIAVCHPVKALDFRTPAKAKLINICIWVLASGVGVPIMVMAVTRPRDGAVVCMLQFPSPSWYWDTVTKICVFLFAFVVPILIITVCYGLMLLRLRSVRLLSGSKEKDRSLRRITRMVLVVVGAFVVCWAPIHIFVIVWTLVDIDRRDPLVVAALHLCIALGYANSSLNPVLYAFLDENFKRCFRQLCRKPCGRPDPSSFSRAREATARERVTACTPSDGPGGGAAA", "assay": "Displacement of [3H]DPDPE from DOP (unknown origin) stably expressed in CHO cell membrane incubated for 90 mins by scintillation counter analysis", "format": "cell membranes"}, "[2]": {"target": "T2, Mu-type opioid receptor (Homo sapiens, UniProt P35372)", "T2 sequence (P35372 whole entry)": "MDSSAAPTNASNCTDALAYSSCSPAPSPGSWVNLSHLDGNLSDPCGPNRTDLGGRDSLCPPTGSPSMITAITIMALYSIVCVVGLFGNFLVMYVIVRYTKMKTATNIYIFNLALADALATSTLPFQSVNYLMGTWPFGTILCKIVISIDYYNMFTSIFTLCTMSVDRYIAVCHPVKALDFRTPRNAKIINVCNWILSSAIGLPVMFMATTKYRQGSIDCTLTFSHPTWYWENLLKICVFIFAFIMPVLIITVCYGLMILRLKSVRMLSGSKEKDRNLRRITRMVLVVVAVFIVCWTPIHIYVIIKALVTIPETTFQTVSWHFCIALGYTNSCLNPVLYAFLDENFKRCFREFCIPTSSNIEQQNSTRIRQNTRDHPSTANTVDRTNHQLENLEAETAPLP", "assay": "Displacement of [3H]DAMGO from MOP (unknown origin) stably expressed in CHO cell membrane incubated for 90 mins by scintillation counter analysis", "format": "cell membranes"}, "[3]": {"target": "T3, Kappa-type opioid receptor (Homo sapiens, UniProt P41145)", "T3 sequence (P41145 whole entry)": "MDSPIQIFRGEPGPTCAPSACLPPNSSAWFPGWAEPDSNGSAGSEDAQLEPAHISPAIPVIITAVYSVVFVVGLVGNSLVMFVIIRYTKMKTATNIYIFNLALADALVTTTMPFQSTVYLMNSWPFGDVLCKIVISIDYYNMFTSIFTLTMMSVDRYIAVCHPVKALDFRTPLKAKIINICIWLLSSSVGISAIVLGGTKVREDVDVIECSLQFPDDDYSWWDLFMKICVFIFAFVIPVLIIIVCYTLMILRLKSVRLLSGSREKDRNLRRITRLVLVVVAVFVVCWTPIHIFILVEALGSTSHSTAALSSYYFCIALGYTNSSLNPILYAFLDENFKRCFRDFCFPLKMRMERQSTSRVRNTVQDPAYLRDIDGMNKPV", "assay": "Displacement of [3H]diprenorphine from KOP (unknown origin) stably expressed in CHO cell membrane incubated for 90 mins by scintillation counter analysis", "format": "cell membranes"}, "[4]": {"test_system": "Mus musculus", "assay": "Antinociceptive activity in icv dosed C57BL/6J mouse assessed as tail withdrawal latency from warm water", "format": "functional"}, "[5]": {"target": "Kappa-type opioid receptor (Rattus norvegicus, UniProt P34975)", "sequence (P34975 whole entry)": "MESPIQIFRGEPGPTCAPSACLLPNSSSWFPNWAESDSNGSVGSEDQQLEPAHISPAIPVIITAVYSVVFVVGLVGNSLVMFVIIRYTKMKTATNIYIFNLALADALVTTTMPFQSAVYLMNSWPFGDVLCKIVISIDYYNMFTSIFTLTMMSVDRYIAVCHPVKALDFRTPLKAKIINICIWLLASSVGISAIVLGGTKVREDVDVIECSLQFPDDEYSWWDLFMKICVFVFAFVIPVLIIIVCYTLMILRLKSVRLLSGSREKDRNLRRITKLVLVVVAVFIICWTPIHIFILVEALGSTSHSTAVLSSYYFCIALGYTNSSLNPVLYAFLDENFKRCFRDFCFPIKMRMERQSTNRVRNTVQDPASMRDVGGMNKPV", "assay": "Displacement of [3H]-norBNI from Wistar rat brain membrane KOP", "format": "cell membranes"}, "[6]": {"test_system": "Mus musculus", "assay": "Antinociceptive activity in Swiss albino mouse assessed tail flick response in warm water administered icv", "format": "functional"}, "[7]": {"assay": "Stability in rat brain homogenate assessed as half life", "format": "ADME, tissue-based"}, "[8]": {"test_system": "Mus musculus", "assay": "Antinociceptive activity in Kunming mouse assessed as heat paw withdrawal measured after 10 secs administered icv", "format": "functional", "conditions": "time 10 sec, 10 s"}, "[9]": {"target": "T1, Delta-type opioid receptor", "assay": "Binding affinity to DOP (unknown origin)"}, "[10]": {"target": "T2, Mu-type opioid receptor", "assay": "Binding affinity to MOP (unknown origin)"}, "[11]": {"assay": "Stability in mouse serum assessed as half life", "format": "ADME, cell-free"}, "[12]": {"assay": "Toxicity in icv dosed C57BL/6J mouse assessed as antinociceptive activity tolerance", "format": "organism-based", "conditions": "in vivo, icv_or_intrathecal"}, "[13]": {"assay": "Half life in mouse liver microsomes", "format": "ADME, Microsome"}, "[14]": {"test_system": "Mus musculus", "assay": "Antinociceptive activity in po dosed C57BL/6J mouse assessed as tail withdrawal latency from warm water", "format": "functional"}, "[15]": {"test_system": "Rattus norvegicus", "assay": "Antinociceptive activity in Sprague-Dawley rat assessed as tail flick response in warm water administered iv", "format": "functional"}, "[16]": {"target": "T2, Mu-type opioid receptor", "assay": "Agonist activity at MOP in human SH-SY5Y cells assessed as forskolin stimulated cAMP accumulation incubated for 30 mins by Biotrak-EIA kit method", "format": "functional, cell-based"}, "[17]": {"assay": "Degradation half life in rat brain homogenate", "format": "ADME, tissue-based"}, "[18]": {"target": "T1, Delta-type opioid receptor", "assay": "Inhibition of DOP (unknown origin)"}, "[19]": {"target": "T3, Kappa-type opioid receptor", "assay": "Inhibition of KOP (unknown origin)"}}, "note": "pEC50, pIC50, pKi: −log10 of the molar value. Bridge positions count the residues as written; N and C are the ends. Square brackets hold non-standard residues; d marks the D form. Peptide text beside a SMILES is read from it. ξ: configuration not given here. d1Nal = N[C@H](Cc1cccc2ccccc12)C(=O)O; d2Nal = N[C@H](Cc1ccc2ccccc2c1)C(=O)O; Dmt = Cc1cc(O)cc(C)c1C[C@H](N)C(=O)O; ξGly(octyl) = CCCCCCCCC(N)C(=O)O; Tic = O=C(O)[C@@H]1Cc2ccccc2CN1"}
{"smiles": "C[C@@H]1NC(=O)[C@H]2CCCN2C(=O)[C@H](Cc2ccccc2)NC(=O)[C@H](Cc2c[nH]c3ccccc23)NC1=O", "values": [{"measurement": "pKi", "setting": "[1]", "value": "< 5.00"}, {"measurement": "pKi", "setting": "[2]", "value": 6.27}, {"measurement": "pKi", "setting": "[3]", "value": 6.18}]}
{"smiles": "C[C@@H]1C(=O)N[C@@H](Cc2ccccc2)C(=O)N[C@@H](Cc2c[nH]c3ccccc23)C(=O)N[C@@H](Cc2ccccc2)C(=O)N1C", "values": [{"measurement": "pKi", "setting": "[1]", "value": 5.86}, {"measurement": "pKi", "setting": "[2]", "value": 6.85}, {"measurement": "ED50", "setting": "[4]", "value": 2.43, "unit": "nmol"}, {"measurement": "pKi", "setting": "[3]", "value": 6.95}]}
{"smiles": "Cc1cc(O)cc(C)c1C[C@H](N)C(=O)N[C@@H]1CCCCNC(=O)C[C@@H](C(N)=O)NC(=O)[C@@H](Cc2cccc3ccccc23)NC(=O)[C@H](Cc2ccccc2)NC1=O", "note": "(H-[Dmt][dK]F[d1Nal]D-NH2; lactam 2-5)", "values": [{"measurement": "pKi", "setting": "[5]", "value": 8.75}, {"measurement": "ED50", "setting": "[6]", "value": 0.06, "unit": "µg"}]}
{"smiles": "CCOC(=O)[C@H](Cc1ccccc1)NC(=O)[C@H](Cc1ccccc1)NC(=O)[C@@H]1CCCN1C(=O)[C@@H](N)Cc1ccc(O)cc1", "values": [{"measurement": "half-life", "setting": "[7]", "value": 58.6, "unit": "min"}, {"measurement": "ED50", "setting": "[8]", "value": 8.4, "unit": "nmol"}, {"measurement": "pKi", "setting": "[9]", "value": 5.53}, {"measurement": "pKi", "setting": "[10]", "value": 7.83}, {"measurement": "half-life", "setting": "[11]", "value": 29.9, "unit": "min"}]}
{"smiles": "O=C1N[C@@H](Cc2ccccc2)C(=O)N2CCC[C@@H]2C(=O)N[C@@H](Cc2ccccc2)C(=O)N[C@H]1Cc1c[nH]c2ccccc12", "values": [{"measurement": "ED50", "setting": "[12]", "value": 5.23, "unit": "nmol"}, {"measurement": "ED50", "setting": "[4]", "value": 1.74, "unit": "nmol"}, {"measurement": "half-life", "setting": "[13]", "value": 49, "unit": "min"}]}
{"smiles": "O=C1N[C@H](Cc2ccccc2)C(=O)N2CCC[C@@H]2C(=O)N[C@@H](Cc2ccccc2)C(=O)N[C@H]1Cc1c[nH]c2ccccc12", "values": [{"measurement": "ED50", "setting": "[14]", "value": 7.62, "unit": "mg/kg"}, {"measurement": "ED50", "setting": "[12]", "value": 20.3, "unit": "nmol"}, {"measurement": "pKi", "setting": "[2]", "value": "< 4.00"}, {"measurement": "ED50", "setting": "[4]", "value": 0.75, "unit": "nmol"}, {"measurement": "half-life", "setting": "[13]", "value": 54, "unit": "min"}]}
{"smiles": "O=C1N[C@@H](Cc2ccccc2)C(=O)N2CCC[C@@H]2C(=O)N[C@H](Cc2ccccc2)C(=O)N[C@H]1Cc1c[nH]c2ccccc12", "values": [{"measurement": "ED50", "setting": "[12]", "value": 125, "unit": "nmol"}, {"measurement": "ED50", "setting": "[4]", "value": 20.4, "unit": "nmol"}, {"measurement": "half-life", "setting": "[13]", "value": "≤ 30", "unit": "min"}]}
{"smiles": "CCCCCCCCC(N)C(=O)N[C@@H](Cc1c(C)cc(O)cc1C)C(=O)N1CCC[C@H]1C(=O)N[C@@H](Cc1c[nH]c2ccccc12)C(=O)N[C@@H](Cc1ccccc1)C(N)=O", "note": "(stereo partly drawn) (H-[ξGly(octyl)][Dmt]PWF-NH2)", "values": [{"measurement": "ED50", "setting": "[15]", "value": 1, "unit": "µmol/kg"}, {"measurement": "pEC50", "setting": "[16]", "value": 8.89}]}
{"smiles": "Cc1cc(O)cc(C)c1C[C@H](N)C(=O)N1Cc2ccccc2C[C@H]1C(=O)N[C@@H](Cc1ccccc1)C(=O)N[C@@H](Cc1ccccc1)C(N)=O", "note": "(H-[Dmt][Tic]FF-NH2)", "values": [{"measurement": "half-life", "setting": "[17]", "value": 6.1, "unit": "min"}]}
{"smiles": "Cc1cc(O)cc(C)c1C[C@H](N)C(=O)N[C@@H]1CCCCNC(=O)C[C@@H](C(N)=O)NC(=O)[C@@H](Cc2ccc3ccccc3c2)NC(=O)[C@H](Cc2ccccc2)NC1=O", "note": "(H-[Dmt][dK]F[d2Nal]D-NH2; lactam 2-5)", "values": [{"measurement": "pKi", "setting": "[5]", "value": 8.99}, {"measurement": "ED50", "setting": "[6]", "value": 0.08, "unit": "µg"}]}
{"smiles": "O=C1N[C@H](Cc2ccccc2)C(=O)N2CCC[C@@H]2C(=O)N[C@H](Cc2ccccc2)C(=O)N[C@H]1Cc1c[nH]c2ccccc12", "values": [{"measurement": "ED50", "setting": "[14]", "value": 4.12, "unit": "mg/kg"}, {"measurement": "ED50", "setting": "[12]", "value": 5.19, "unit": "nmol"}, {"measurement": "ED50", "setting": "[4]", "value": 1, "unit": "nmol"}, {"measurement": "half-life", "setting": "[13]", "value": "≤ 30", "unit": "min"}]}
{"smiles": "CC[C@@H]1CN2CCc3c([nH]c4cccc(OC)c34)[C@H]2C[C@@H]1/C(=C\\OC)C(=O)OC", "values": [{"measurement": "pIC50", "setting": "[18]", "value": "< 5.00"}, {"measurement": "pKi", "setting": "[9]", "value": "< 5.00"}, {"measurement": "pIC50", "setting": "[19]", "value": 5.00}]}
{"smiles": "COC(=O)[C@H](Cc1ccccc1)NC(=O)[C@H](Cc1ccccc1)NC(=O)[C@@H]1CCCN1C(=O)[C@@H](N)Cc1ccc(O)cc1", "values": [{"measurement": "half-life", "setting": "[7]", "value": 47.6, "unit": "min"}, {"measurement": "ED50", "setting": "[8]", "value": 3, "unit": "nmol"}, {"measurement": "pKi", "setting": "[9]", "value": "< 5.00"}, {"measurement": "pKi", "setting": "[10]", "value": 8.04}, {"measurement": "half-life", "setting": "[11]", "value": 30.1, "unit": "min"}]}
{"smiles": "CC[C@H]1CN2CCc3c([nH]c4cccc(OC)c34)[C@@H]2C[C@@H]1/C(=C\\OC)C(=O)OC", "values": [{"measurement": "pIC50", "setting": "[18]", "value": "< 5.00"}, {"measurement": "pKi", "setting": "[9]", "value": "< 5.00"}, {"measurement": "pIC50", "setting": "[19]", "value": 5.00}]}
{"smiles": "O=C1N[C@H](Cc2c[nH]c3ccccc23)C(=O)N[C@H](Cc2ccccc2)C(=O)N2CCC[C@@H]2C(=O)N[C@H]1Cc1ccccc1", "values": [{"measurement": "pKi", "setting": "[2]", "value": "< 4.00"}, {"measurement": "ED50", "setting": "[4]", "value": 2.39, "unit": "nmol"}, {"measurement": "pKi", "setting": "[3]", "value": "< 4.00"}, {"measurement": "half-life", "setting": "[13]", "value": "≤ 30", "unit": "min"}]}
{"smiles": "C[C@@H]1NC(=O)[C@H](Cc2ccccc2)NC(=O)[C@H]2CCCN2C(=O)[C@H](Cc2ccccc2)NC1=O", "values": [{"measurement": "pKi", "setting": "[1]", "value": "< 5.00"}, {"measurement": "pKi", "setting": "[2]", "value": 6.16}, {"measurement": "ED50", "setting": "[4]", "value": 6.97, "unit": "nmol"}, {"measurement": "pKi", "setting": "[3]", "value": 5.81}]}
